Columns and labels:
Test in all cases: relative viability (nuclei count vs DMSO), 5 days (fraction); higher = more cells survive
Bortezomib + Lapatinib = compound: CC(C)C[C@H](NC(=O)[C@H](Cc1ccccc1)NC(=O)c1cnccn1)B(O)O [Bortezomib] + CS(=O)(=O)CCNCc1ccc(-c2ccc3ncnc(Nc4ccc(OCc5cccc(F)c5)c(Cl)c4)c3c2)o1 [Lapatinib] (partner 2 µM)
Summary of the method: (§1)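 Relative viability was taken as the ratio of nuclei in treated wells to nuclei in vehicle wells. Lung cancer cell lines in 1536-well plates received compounds by pin tool one day after seeding, either one drug alone or a fixed anchor-drug dose plus five library-drug doses (not always all listed) in √10 steps. Nuclei were counted on 4× images after 5 days of treatment, and values are medians of duplicate plates.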

[1] = compound: CC1=CC(=NN1)NC2=CC(=NC(=N2)/C=C/C3=CC=CC=C3)N4CCN(CC4)C + COc1cccc2cc(-c3nc([C@H]4CC[C@H](C(=O)O)CC4)n4ncnc(N)c34)[nH]c12 [OSI-027] (partner 0.5 µM)
Summary of the method: as §1

Obatoclax + Decitabine = compound: COC1=CC(c2cc3ccccc3[nH]2)=N/C1=C\c1[nH]c(C)cc1C [Obatoclax] + Nc1ncn([C@H]2C[C@H](O)[C@@H](CO)O2)c(=O)n1 [Decitabine] (partner 2 µM)
Summary of the method: as §1

[2] = compound: CC1=CC(=NN1)NC2=CC(=NC(=N2)/C=C/C3=CC=CC=C3)N4CCN(CC4)C + O=C(CCCCCCC(=O)Nc1ccccc1)NO [Vorinostat] (partner 1 µM)
Summary of the method: as §1

Cell Line	relative viability (Bortezomib + Lapatinib; first compound 0.0002 µM)	relative viability (Bortezomib + Lapatinib; first compound 0.000632 µM)	relative viability (Bortezomib + Lapatinib; first compound 0.002 µM)	relative viability (Bortezomib + Lapatinib; first compound 0.006325 µM)	relative viability (Bortezomib + Lapatinib; first compound 0.02 µM)	relative viability ([1]; first compound 0.08 µM)	relative viability ([1]; first compound 0.253 µM)	relative viability ([1]; first compound 0.8 µM)	relative viability ([1]; first compound 2.53 µM)	relative viability ([1]; first compound 8 µM)	relative viability (Obatoclax + Decitabine; first compound 0.01 µM)	relative viability (Obatoclax + Decitabine; first compound 0.03162 µM)	relative viability (Obatoclax + Decitabine; first compound 0.1 µM)	relative viability (Obatoclax + Decitabine; first compound 0.3162 µM)	relative viability (Obatoclax + Decitabine; first compound 1 µM)	relative viability ([2]; first compound 0.08 µM)	relative viability ([2]; first compound 0.253 µM)	relative viability ([2]; first compound 0.8 µM)	relative viability ([2]; first compound 2.53 µM)	relative viability ([2]; first compound 8 µM)
201T	1.01	0.99	1.06	1.05	0.512	0.718	0.756	0.803	0.531	0.112	0.814	0.731	0.868	0.857	0.92	1	1.13	0.997	0.879	0.449
A549	0.981	0.872	0.957	0.0567	0.0601	–	–	–	–	–	0.205	0.122	–	0.282	0.309	–	–	–	–	–
A-427	1.05	0.975	1.11	1.02	0.19	0.531	0.295	0.466	0.192	0.0905	0.528	0.525	0.491	0.614	0.504	0.943	0.904	0.822	0.334	0.212
ABC-1	0.941	1.06	0.605	0.606	0.495	0.453	0.54	0.644	0.179	0.143	1.38	1.31	0.999	1.17	1.07	1.01	1.19	1.31	0.392	0.225
BEN	0.72	0.74	0.61	0.339	0.114	0.294	0.264	0.271	0.244	0.162	0.756	0.553	0.393	0.624	0.659	0.544	0.53	0.563	0.47	0.334
CAL-12T	0.683	0.617	0.561	0.246	0.201	0.666	0.651	0.447	0.14	0.12	–	–	–	–	–	0.686	0.573	0.639	0.428	0.126
COR-L23	0.814	1.1	0.771	0.0607	0.0542	0.817	0.753	0.67	0.361	0.0841	0.478	0.404	0.488	0.235	0.194	0.417	0.446	0.195	0.0754	0.087
COR-L 105	0.358	0.354	0.334	0.344	0.349	0.773	0.834	0.678	0.255	0.178	0.68	0.665	0.634	0.525	0.407	0.818	0.762	0.753	0.47	0.262
Calu-6	0.961	1.03	1.02	0.138	0.109	–	–	–	–	–	–	–	–	–	–	–	–	–	–	–
ChaGo-K-1	–	–	–	–	–	0.566	0.548	0.528	0.191	0.131	0.497	0.476	0.506	0.509	0.516	0.799	0.8	0.613	0.343	0.186
EBC-1	0.221	0.228	0.204	0.164	0.151	–	–	–	–	–	–	–	–	–	–	–	–	–	–	–
EKVX	0.205	0.261	0.208	0.204	0.0816	0.699	0.845	0.664	0.611	0.3	0.343	–	0.313	0.368	0.324	0.702	0.82	0.794	0.571	0.289
EMC-BAC-2	0.902	0.923	0.966	0.652	0.153	0.364	0.426	0.32	0.226	0.097	0.95	0.977	–	0.98	0.541	0.416	0.428	0.354	0.171	0.0976
EPLC-272H	–	–	1.03	0.671	0.167	0.305	0.277	0.231	0.202	0.171	0.368	0.349	0.43	0.314	0.303	0.472	0.488	0.401	0.141	0.0816
H3255	0.261	0.209	0.24	0.191	0.179	0.582	0.541	0.579	0.589	0.382	0.595	0.581	–	0.589	0.623	0.746	0.834	0.872	0.831	0.525
HARA	0.647	0.527	0.73	0.0694	0.0797	0.361	0.474	0.649	0.252	0.0476	0.52	0.593	0.528	0.462	0.405	0.545	0.689	0.459	0.26	0.0694
HCC-15	0.824	0.943	0.817	0.38	0.0867	0.665	0.642	0.549	0.158	0.0878	0.678	0.568	0.509	0.615	0.434	0.861	0.875	0.887	0.526	0.114
HCC-44	0.977	1.02	0.953	0.658	0.118	0.615	0.49	0.633	0.292	0.144	0.968	0.643	0.966	0.902	0.84	1.08	1.13	1.05	0.904	0.36
HCC-78	0.899	0.791	0.715	0.826	0.153	0.325	0.357	0.387	0.343	0.198	0.617	0.511	0.706	0.616	0.699	0.465	0.518	0.461	0.372	0.246
HCC-366	0.861	1.01	1.03	0.875	0.0176	0.833	0.618	0.875	0.0773	0.0341	0.318	0.271	0.306	0.347	0.274	0.38	0.505	0.136	0.0276	0.0214

Cell Line	relative viability (Bortezomib + Lapatinib; first compound 0.0002 µM)	relative viability (Bortezomib + Lapatinib; first compound 0.000632 µM)	relative viability (Bortezomib + Lapatinib; first compound 0.002 µM)	relative viability (Bortezomib + Lapatinib; first compound 0.006325 µM)	relative viability (Bortezomib + Lapatinib; first compound 0.02 µM)	relative viability ([1]; first compound 0.08 µM)	relative viability ([1]; first compound 0.253 µM)	relative viability ([1]; first compound 0.8 µM)	relative viability ([1]; first compound 2.53 µM)	relative viability ([1]; first compound 8 µM)	relative viability (Obatoclax + Decitabine; first compound 0.01 µM)	relative viability (Obatoclax + Decitabine; first compound 0.03162 µM)	relative viability (Obatoclax + Decitabine; first compound 0.1 µM)	relative viability (Obatoclax + Decitabine; first compound 0.3162 µM)	relative viability (Obatoclax + Decitabine; first compound 1 µM)	relative viability ([2]; first compound 0.08 µM)	relative viability ([2]; first compound 0.253 µM)	relative viability ([2]; first compound 0.8 µM)	relative viability ([2]; first compound 2.53 µM)	relative viability ([2]; first compound 8 µM)
HCC-827	0.217	0.183	0.187	0.222	0.15	0.778	0.865	0.716	0.742	0.588	0.332	0.273	0.337	0.223	0.355	0.282	0.908	0.823	0.773	0.215
HOP-62	0.953	1.01	1.04	0.283	0.0578	0.875	0.865	0.861	0.52	0.38	0.257	0.177	0.206	0.277	0.214	0.603	0.566	0.637	0.387	0.129
IA-LM	0.828	0.851	0.432	0.0336	0.0551	–	–	–	–	–	–	–	–	–	–	1.02	1.12	0.874	0.887	0.332
LC-2-ad	0.73	–	0.928	0.258	0.1	0.808	0.867	0.753	0.336	0.184	0.706	0.784	0.82	0.742	0.847	0.709	0.751	0.467	0.186	0.15
LCLC-97TM1	0.651	0.701	0.749	0.248	0.118	0.427	0.335	0.564	0.192	0.2	0.216	0.197	0.196	0.214	0.192	0.625	0.787	0.74	0.19	0.0813
LCLC-103H	–	–	–	–	–	0.504	0.486	0.463	0.378	0.332	0.7	0.728	0.784	0.763	0.738	0.824	0.69	0.779	0.582	0.294
LK-2	0.804	0.922	0.498	0.204	0.232	0.207	0.222	0.179	0.171	0.124	0.365	0.242	0.335	0.268	0.395	0.254	0.155	0.283	0.223	0.126
LOU-NH91	0.795	0.704	0.454	0.334	0.287	0.767	0.842	0.742	0.699	0.507	0.743	0.833	0.728	0.758	0.606	0.954	0.935	0.941	0.594	0.41
LU99A	0.939	–	1.11	0.811	0.171	0.292	0.327	0.28	0.256	0.155	0.915	0.89	–	0.847	0.976	0.481	0.434	0.425	0.182	0.0957
NCI-H441	–	–	–	–	–	0.607	0.501	0.589	0.226	0.179	0.213	0.272	0.287	0.2	0.194	0.569	0.768	0.58	0.498	0.138
NCI-H522	–	–	–	–	–	0.709	0.629	0.609	0.56	0.421	0.708	0.642	0.607	0.747	0.608	0.894	0.93	1.12	0.854	0.426
NCI-H1299	0.959	0.93	0.933	0.463	0.16	–	–	–	–	–	–	–	–	–	–	–	–	–	–	–
NCI-H1563	0.809	0.869	0.684	0.506	0.481	0.776	0.813	0.722	0.65	0.431	–	–	–	–	–	–	–	–	–	–
NCI-H1623	–	–	–	–	–	0.412	0.41	0.411	0.377	0.282	–	–	–	–	–	–	–	–	–	–
NCI-H1648	–	–	–	–	–	0.257	0.272	0.26	0.263	0.258	0.594	0.421	0.829	0.447	0.39	0.437	0.488	0.666	0.346	0.203
NCI-H1703	1.23	0.947	0.184	0.135	0.145	–	–	–	–	–	–	–	–	–	–	–	–	–	–	–
NCI-H1792	0.797	0.862	0.967	0.929	0.797	0.678	0.777	0.673	0.519	0.206	0.58	0.469	0.537	0.427	0.581	–	–	–	–	–
NCI-H2228	0.986	0.816	0.438	0.115	0.119	0.566	0.595	0.557	0.0751	0.0577	–	–	–	–	–	0.778	0.647	0.328	0.0662	0.0606
NCI-H2342	–	–	–	–	–	0.557	0.594	0.662	0.577	0.381	0.724	0.782	0.758	0.732	0.812	0.685	0.765	0.698	0.722	0.312
SW 900	–	–	–	–	–	0.493	0.58	0.489	0.259	0.0615	0.438	0.426	0.364	0.402	0.382	0.388	0.623	0.535	0.211	0.0757

— the supplement of paper PMC10307832
